Experimental data published in patent publication US20050159481A1, “Medicinal composition for improving angiotension-regulating function of blood vessel endothelium” (CHUGAI SEIYAKU KABUSHIKI KAISHA, priority 2002, published 2005).

Test system: rat mesenteric artery sections damaged by oxidized LDL
Experiment: Vascular endothelium-dependent relaxation response to acetylcholine in rat vessel cross-sections damaged by oxidized LDL
Assay type: cell-based
Details: for ACh concentration at which the relaxation degree of 50% was achieved: 30 min perfusion, then oxidized LDL 100 μg/mL for 60 min, sections contracted with 5 μM phenylephrine
Experimental: The ability of a compound of the present invention to ameliorate the vascular tone-regulating function of vascular endothelium was evaluated by assaying vascular endothelium-dependent relaxation response to acetylcholine in the presence of a compound of the present invention using cross-section samples of rat vessels damaged by oxidized low-density lipoprotein (oxidized LDL).
Oxidized LDL is a substance derived from an endogenous low-density lipoprotein (LDL) via a exposure to a oxidative stress, and has been reported to be involved in the mechanism by which vascular endothelial cells are damaged (Tanner F C, Noll G, Boulanger C M, Luscher T F, Oxidized low density lipoproteins inhibit relaxations of porcine coronary arteries. Role of scavenger receptor and endothelium-derived nitric oxide. Circulation. 1991, 83:2012-20). The oxidized LDL used in this test was prepared by incubating rabbit LDL suspended at 200 μg/mL in phosphate buffered physiological saline (PBS) prepared by the method of Havel et al. (Havel R. J. et al., J. Clin. Invest., 34, 1345 (1955)) with 5 μM CuSO4 at 37° C. for 24 hours.
First, the mesenteric artery was collected from a rat euthanized by carbon dioxide inhalation into Krebs buffer (containing 118.0 mM NaCl, 4.7 mM KCl, 25.0 mM NaCO3, […] CaCl, 1.5 mM MgSO4 and 10 mM glucose), and the artery was cut into 2 mm wide annular cross sections. Then, the sections were suspended in a Magnus bath where they were equilibrated under a tension of 3 mN for 60 minutes. After equilibration, the sections were contracted with a 5 μM phenylephrine solution in Krebs buffer.
After confirming that a stable contraction was achieved, the perfusion solution was replaced with Krebs buffer containing 20 μM each of test compounds. The test compounds were the compound of the present invention, 4,6-di-t-butyl-5-hydroxy-2,2-di-n-pentyl-2,3-dihydrobenzofuran, and comparative compounds, probucol and α-tocopherol. Probucol is a compound reported to ameliorate the vascular tone-regulating function of vascular endothelium by preventing the decrease of the EDRF-secreting ability of vascular endothelial cells. α-tocopherol is a fat-soluble endogenous antioxidant known to inhibit the oxidation of LDL.
After perfusion for 30 minutes, oxidized LDL was added to a concentration of 100 μg/mL. After equilibration in the perfusion solution containing oxidized LDL for 60 minutes, acetylcholine (ACh) was cumulatively added at concentrations from 1×10^−10 M to 1×10^−5 M. At equally spaced ACh concentrations, the length of each section was measured to calculate the degree of relaxation (%) by dividing the difference between the lengths of the section before and after relaxation by the length before relaxation. This relaxation is a phenomenon resulting from the acetylcholine-induced secretion of EDRF from vascular endothelial cells.
In addition to the experiment described above, a similar experiment was performed except that the perfusion in Krebs buffer containing test compounds and the equilibration with oxidized LDL were omitted (control experiment) or except that the perfusion in Krebs buffer containing test compounds was omitted but the equilibration with oxidized LDL was included (oxidized LDL experiment).
The procedure of test example 1 was followed except that the concentration of the test compound was increased from 20 μM to 50 μM.

[1] = 20 μM test compound, compared with the oxidized LDL experiment, FIG. 1

| Compound | ACh concentration at which the relaxation degree of 50% was achieved (20 μM test compound, FIG. 1) [nM] | Ameliorating effect on the vascular tone-regulating function of vascular endothelium damaged by oxidized LDL [1] | Ameliorating effect on the vascular tone-regulating function of vascular endothelium damaged by oxidized LDL (50 μM test compound, compared with the control, FIG. 2) |
| --- | --- | --- | --- |
| CCCCCC1(CCCCC)Cc2c(cc(C(C)(C)C)c(O)c2C(C)(C)C)O1 [compound of the present invention, 4,6-di-t-butyl-5-hydroxy-2,2-di-n-pentyl-2,3-dihydrobenzofuran] | 126 | ameliorated the vascular tone-regulating function of vascular endothelium | adverse influence of oxidized LDL-induced damages to vascular endothelial cells on the vascular tone-regulating function was completely removed |
| CC(C)(Sc1cc(C(C)(C)C)c(O)c(C(C)(C)C)c1)Sc1cc(C(C)(C)C)c(O)c(C(C)(C)C)c1 [probucol] | 121 | – | – |
| Cc1c(C)c2c(c(C)c1O)CC[C@@](C)(CCC[C@H](C)CCC[C@H](C)CCCC(C)C)O2 [α-tocopherol] | 261 | does not ameliorate the vascular tone-regulating function of vascular endothelium | – |
